The subject of assay [1] is purified chick sensory neurons (PC12 or SH-SY5Y cells). To be noted: literature; cited from earlier work.
The test system of the next assay is calcineurin. To be noted: cited from earlier work.
A further assay has as its system DRG explants. The assay can be described thus: DRG explant neurite outgrowth with anti-NGF neutralizing antibodies or MEK1 inhibitor. The assay is classed as cell-based, C57B1/6 mice. On the procedure:
(A) DRGs were prepared and cultured as above, except that either the MEK1 inhibitor, PD 098059, or NGF-neutralizing antibodies were included in cultures treated with either NGF or GM-284. Maximal response was determined to be the extent of neurite outgrowth when DRGs were cultured in NGF alone (spotted bars) or in 1 μM GM-284 (striped bars). As indicated, DRGs were treated with either NGF or GM-284, in the presence of either 0.25 mg/ml anti-NGF neutralizing antibodies or PD 098059. […] DRGs were treated with 100 ng/ml NGF or 1 μM GM-284, for 30 min or 4 h, as indicated, and the detergent lysates were prepared and immunoblotted with anti-phospho-Erk monoclonal antibody. The p42 and p44 bands are indicated by arrowheads.
Explanted DRG ganglia were dissected from P1 to P3 C57B1/6 mice, as previously described (Weinstein et al., Targeted expression of an oncogenic adaptor protein v-Crk potentiates axonal growth in dorsal root ganglia and motor neurons in vivo. Brain Res. Dev. Brain Res., 116:29-39, 1999). Briefly, DRGs were dissected and placed in ice-cold PBS containing 2% glucose, then transferred onto polyornithine/laminin-coated tissue culture plates (Biocoat, Becton Dickinson Laboratories) in DMEM-plating medium overnight. The plating medium consisted of Dulbecco's minimal essential plating medium (DMEM) supplemented with 10% fetal calf serum (FCS; Hyclone), 0.6% glucose, 2 mM glutamine, 100 U/ml penicillin, 100 μg/ml streptomycin, and 20 mM HEPES. […] For experiments employing anti-NGF neutralizing antibodies, cultures were incubated with […] anti-NGF antiserum, and replaced every two days. Cultures were kept at 37° C., in 5% CO2, for up to 1 week, at which time the extent of well-defined neurite outgrowth was assessed.
Signaling by the neurotrophins, while mediated by different cell-surface receptors, converges on the extensively studied and well-characterized MAP kinase pathway. […] Therefore, the inventors explored the possibility that GM-284 might signal through NGF directly, or through the MAP kinase cascade. […]

“Also recorded” adds a separate entry of the source.

With `CCC(C)(C)C(=O)C(=O)N1CCC[C@H]1C(=O)OCCCc1cccnc1` [GPI-1046], the “neurite outgrowth without other signaling molecules / with sub-threshold NGF” value in assay [1] is listed as “potentiate neurite outgrowth only when co-administered with sub-threshold concentrations of NGF; also recorded: unable to mediate neurite outgrowth in the absence of other signaling molecules”. Besides, in the assay with calcineurin, the “binding to / inhibition of calcineurin” value is given as “neither bind to, nor inhibit, calcineurin”.
Consider `COc1cccc(-c2cc(=O)c3ccccc3o2)c1N` [PD 098059], for which the “effect of anti-NGF / MEK1 inhibition on GM-284-mediated neurite outgrowth” value in the assay with DRG explants (DRGs cultured in 1 μM GM-284 plus inhibitor) is listed as “no effect”. Besides, the “decrease of NGF-dependent neurite outgrowth” value with DRG explants (DRGs cultured in NGF plus inhibitor) was around 40%.

The values are drawn from patent US20040266811A1, “Methods for inducing regeneration, remyelination, and hypermyelination of nervous tissue” (priority 2002, published 2004).
